Literature values, collected in paper PMC11547388, “Toxicokinetics and Tissue Distribution of the Hepatotoxic Triterpenoid Saponin Pterocephin A in Rats Using the Ultra-Performance Liquid Chromatography–Tandem Mass Spectrometry (UPLC-MS/MS) Method” (Molecules, 2024).

Parameters: method as in PMID 37253396
Details: in vivo, HPLC-QQQ-MS/MS

For `C=C(C)[C@@H]1CC[C@]2(C(=O)O[C@@H]3O[C@H](CO[C@@H]4O[C@H](CO)[C@@H](O[C@@H]5O[C@@H](C)[C@H](O)[C@@H](O)[C@H]5O)[C@H](O)[C@H]4O)[C@@H](O)[C@H](O)[C@H]3O)CC[C@]3(C)[C@H](CC[C@@H]4[C@@]5(C)CC[C@H](O[C@@H]6OC[C@H](O)[C@H](O)[C@H]6O[C@@H]6O[C@@H](C)[C@H](O)[C@@H](O)[C@H]6O)[C@@](C)(CO)[C@@H]5CC[C@]43C)[C@@H]12` [AB4, anemoside B4], the bioavailability is given as “less than 1%”.
